Laboratory results taken from US8987195B2 (priority 2012, dated 2015).
Where two headings read alike, the source gives them in different places.

Experiments:
HCV genotype 1b replicon = assay: HCV replicon assay, genotype 1b replicon EC50; type: cell-based, Hepatitis C virus; settings: Hepatitis C virus, read-out: EC50 [gt-1b]
Outline: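 Potency comes from a four-parameter fit of signal as percent of DMSO control. Replicon-bearing cells were treated 24-48 hours with a compound dilution series in absence of G418, and replicon RNA was quantified normalized to cyclophilin A RNA, or luciferase read.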

[1] = target: HCV NS3/4A protease genotype 1b (Hepatitis C virus genotype 1b, UniProt P26663); assay: HCV NS3/4A protease time-resolved fluorescence (TRF) assay, Ki against genotype 1b; type: biochemical
Outline: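 Enzyme 0.2 nM 1b / 0.4 nM A156T / 0.025 nM 3a; 30 min preinc. w/ cpd; 25 nM TRF peptide; 2.5 h RT; ex 340/em 615 time-delayed; 4-param IC50 → Ki = IC50/(1+[S]/KM).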

[2] = HCV replicon, genotype 1b, K+ salt
[3] = IC50 [gt-1b], NS3/4A protease TRF assay, genotype 1b enzyme 0.2 nM, K+ salt
[4] = IC50 [gt-1b] (nM), NS3/4A genotype 1b, enzyme 0.2 nM
[5] = IC50 [gt-1b] (nM), NS3/4A genotype 1b, enzyme 0.2 nM, K+ salt
[6] = IC50 [gt-1b], NS3/4A protease TRF assay, genotype 1b enzyme 0.2 nM

COc1ccc2nc(C3CC3)c3c(c2c1)CC[C@]1(C[C@H]2C(=O)N[C@]4(C(=O)NS(=O)(=O)C5(C)CC5)C[C@H]4/C=C\CCCCC[C@H](NC(=O)O[C@H](C)C(C)C)C(=O)N2C1)O3 [Example 413, (2R)-3-methylbutan-2-yl [(2R,6S,12Z,13aS,14aR,16aS)-5′-cyclopropyl-9′-methoxy-14a-{[(1-methylcyclopropyl)sulfonyl]carbamoyl}-5,16-dioxo-1,1′,2′,5,6,7,8,9,10,11,13a,14,14a,15,16,16a-hexadecahydrospiro[cyclopropa[e]pyrrolo[1,2-a][1,4]diazacyclopentadecine-2,3′-pyrano[2,3-c]quinolin]-6-yl]carbamate]
EC50 (HCV genotype 1b replicon; [2]): 2.53 nM
IC50 [1, 3]: 0.021 nM

COc1ccc2nc(C3CC3)c3c(c2c1)CC[C@]1(C[C@H]2C(=O)N[C@]4(C(=O)NS(=O)(=O)C5(C)CC5)C[C@H]4/C=C\CCCCC[C@H](NC(=O)NC(C)(C)C)C(=O)N2C1)O3 [Example 90, (2R,6S,12Z,13aS,14aR,16aS)-6-[(tert-butylcarbamoyl)amino]-5′-cyclopropyl-9′-methoxy-N-[(1-methylcyclopropyl)sulfonyl]-5,16-dioxo-1,1′,2′,6,7,8,9,10,11,13a,14,15,16,16a-tetradecahydrospiro[cyclopropa[e]pyrrolo[1,2-a][1,4]diazacyclopentadecine-2,3′-pyrano[2,3-c]quinoline]-14a(5H)-carboxamide]
EC50 (HCV genotype 1b replicon; genotype 1b replicon): 1.15 nM
IC50 [1, 4]: 0.006 nM

Cc1nc2ccc(OCC(F)(F)F)cc2c2c1O[C@]1(CC2)C[C@H]2C(=O)N[C@]3(C(=O)NS(=O)(=O)C4(C)CC4)C[C@H]3/C=C\CCCCC[C@H](NC(=O)OCC(C)(C)C)C(=O)N2C1 [Example 303, 2,2-dimethylpropyl [(2R,6S,12Z,13aS,14aR,16aS)-5′-methyl-14a-{[(1-methylcyclopropyl)sulfonyl]carbamoyl}-5,16-dioxo-9′-(2,2,2-trifluoroethoxy)-1,1′,2′,5,6,7,8,9,10,11,13a,14,14a,15,16,16a-hexadecahydrospiro[cyclopropa[e]pyrrolo[1,2-a][1,4]diazacyclopentadecine-2,3′-pyrano[2,3-c]quinolin]-6-yl]carbamate]
EC50 (HCV genotype 1b replicon; genotype 1b replicon): 5.79 nM
IC50 [1, 4]: 0.012 nM

Cc1nc2ccc(OC(F)F)cc2c2c1O[C@]1(CC2)C[C@H]2C(=O)N[C@]3(C(=O)NS(=O)(=O)C4(C)CC4)C[C@H]3/C=C\CCCCC[C@H](NC(=O)OCC(C)C)C(=O)N2C1 [Example 267, 2-methylpropyl [(2R,6S,12Z,13aS,14aR,16aS)-9′-(difluoromethoxy)-5′-methyl-14a-{[(1-methylcyclopropyl)sulfonyl]carbamoyl}-5,16-dioxo-1,1′,2′,5,6,7,8,9,10,11,13a,14,14a,15,16,16a-hexadecahydrospiro[cyclopropa[e]pyrrolo[1,2-a][1,4]diazacyclopentadecine-2,3′-pyrano[2,3-c]quinolin]-6-yl]carbamate]
EC50 (HCV genotype 1b replicon; genotype 1b replicon, K+ salt): 3.56 nM
IC50 [1, 5]: 0.006 nM

COCC1(S(=O)(=O)NC(=O)[C@@]23C[C@H]2/C=C\CCCCC[C@H](NC(=O)OCC2(C)CC2)C(=O)N2C[C@@]4(CCc5c(c(C(F)(F)F)nc6ccc(OC)cc56)O4)C[C@H]2C(=O)N3)CC1 [Example 494, (1-methylcyclopropyl)methyl [(2R,6S,12Z,13aS,14aR,16aS)-9′-methoxy-14a-({[1-(methoxymethyl)cyclopropyl]sulfonyl}carbamoyl)-5,16-dioxo-5′-(trifluoromethyl)-1,1′,2′,5,6,7,8,9,10,11,13a,14,14a,15,16,16a-hexadecahydrospiro[cyclopropa[e]pyrrolo[1,2-a][1,4]diazacyclopentadecine-2,3′-pyrano[2,3-c]quinolin]-6-yl]carbamate]
EC50 (HCV genotype 1b replicon; HCV replicon, genotype 1b): 1.73 nM
IC50 [1, 6]: 0.018 nM

COc1ccc2nc(C)c3c(c2c1)C(F)(F)C[C@]1(C[C@H]2C(=O)N[C@]4(C(=O)NS(=O)(=O)C5(C)CC5)C[C@H]4/C=C\CCCCC[C@H](NC(=O)OC4CCCC4)C(=O)N2C1)O3 [Example 260, cyclopentyl [(2S,6S,12Z,13aS,14aR,16aS)-1′,1′-difluoro-9′-methoxy-5′-methyl-14a-{[(1-methylcyclopropyl)sulfonyl]carbamoyl}-5,16-dioxo-1,1′,2′,5,6,7,8,9,10,11,13a,14,14a,15,16,16a-hexadecahydrospiro[cyclopropa[e]pyrrolo[1,2-a][1,4]diazacyclopentadecine-2,3′-pyrano[2,3-c]quinolin]-6-yl]carbamate]
EC50 (HCV genotype 1b replicon; genotype 1b replicon): 5.22 nM
IC50 [1, 4]: 0.006 nM

COC(=O)N[C@H]1CCCCC/C=C\[C@@H]2C[C@@]2(C(=O)NS(=O)(=O)C2(C)CC2)NC(=O)[C@@H]2C[C@]3(CCc4c(c(C5CC5)nc5ccc(OC)cc45)O3)CN2C1=O [Example 435, methyl [(2R,6S,12Z,13aS,14aR,16aS)-5′-cyclopropyl-9′-methoxy-14a-{[(1-methylcyclopropyl)sulfonyl]carbamoyl}-5,16-dioxo-1,1′,2′,5,6,7,8,9,10,11,13a,14,14a,15,16,16a-hexadecahydrospiro[cyclopropa[e]pyrrolo[1,2-a][1,4]diazacyclopentadecine-2,3′-pyrano[2,3-c]quinolin]-6-yl]carbamate]
EC50 (HCV genotype 1b replicon; [2]): 3.08 nM
IC50 [1, 3]: 0.069 nM

CC(C)(C)COC(=O)N[C@H]1CCCCC/C=C\[C@@H]2C[C@@]2(C(=O)NS(=O)(=O)C2(C)CC2)NC(=O)[C@@H]2C[C@]3(CCc4c(c(C5CC5)nc5c(F)cccc45)O3)CN2C1=O [Example 192, 2,2-dimethylpropyl [(2R,6S,12Z,13aS,14aR,16aS)-5′-cyclopropyl-7′-fluoro-14a-{[(1-methylcyclopropyl)sulfonyl]carbamoyl}-5,16-dioxo-1,1′,2′,5,6,7,8,9,10,11,13a,14,14a,15,16,16a-hexadecahydrospiro[cyclopropa[e]pyrrolo[1,2-a][1,4]diazacyclopentadecine-2,3′-pyrano[2,3-c]quinolin]-6-yl]carbamate]
EC50 (HCV genotype 1b replicon; genotype 1b replicon): 9.61 nM
IC50 [1, 4]: 0.019 nM

Cc1nc2cc(F)c(F)cc2c2c1O[C@]1(CC2)C[C@H]2C(=O)N[C@]3(C(=O)NS(=O)(=O)C4(C)CC4)C[C@H]3/C=C\CCCCC[C@H](NC(=O)OCC(C)C)C(=O)N2C1 [Example 201, 2-methylpropyl [(2R,6S,12Z,13aS,14aR,16aS)-8′,9′-difluoro-5′-methyl-14a-{[(1-methylcyclopropyl)sulfonyl]carbamoyl}-5,16-dioxo-1,1′,2′,5,6,7,8,9,10,11,13a,14,14a,15,16,16a-hexadecahydrospiro[cyclopropa[e]pyrrolo[1,2-a][1,4]diazacyclopentadecine-2,3′-pyrano[2,3-c]quinolin]-6-yl]carbamate]
EC50 (HCV genotype 1b replicon; genotype 1b replicon, K+ salt): 0.91 nM
IC50 [1, 5]: 0.007 nM

COc1ccc2nc(C)c3c(c2c1)CC[C@]1(C[C@H]2C(=O)N[C@]4(C(=O)NS(=O)(=O)C5(C)CC5)C[C@H]4/C=C\CCCCC[C@H](NC(=O)OC4(C)CC4)C(=O)N2C1)O3 [Example 141, 1-methylcyclopropyl [(2R,6S,12Z,13aS,14aR,16aS)-9′-methoxy-5′-methyl-14a-{[(1-methylcyclopropyl)sulfonyl]carbamoyl}-5,16-dioxo-1,1′,2′,5,6,7,8,9,10,11,13a,14,14a,15,16,16a-hexadecahydrospiro[cyclopropa[e]pyrrolo[1,2-a][1,4]diazacyclopentadecine-2,3′-pyrano[2,3-c]quinolin]-6-yl]carbamate]
EC50 (HCV genotype 1b replicon; genotype 1b replicon): 1.47 nM
IC50 [1, 4]: 0.003 nM

COc1ccc2nc(C)c3c(c2c1)CC[C@]1(C[C@H]2C(=O)N[C@]4(C(=O)NS(=O)(=O)C5(C)CC5)C[C@H]4/C=C\CCCCC[C@H](NC(=O)OC4CCCCC4)C(=O)N2C1)O3 [Example 206, cyclohexyl [(2R,6S,12Z,13aS,14aR,16aS)-9′-methoxy-5′-methyl-14a-{[(1-methylcyclopropyl)sulfonyl]carbamoyl}-5,16-dioxo-1,1′,2′,5,6,7,8,9,10,11,13a,14,14a,15,16,16a-hexadecahydrospiro[cyclopropa[e]pyrrolo[1,2-a][1,4]diazacyclopentadecine-2,3′-pyrano[2,3-c]quinolin]-6-yl]carbamate]
EC50 (HCV genotype 1b replicon; genotype 1b replicon, K+ salt): 0.808 nM
IC50 [1, 5]: 0.005 nM

Cc1nc2ccc(OC(F)(F)F)cc2c2c1O[C@]1(CC2)C[C@H]2C(=O)N[C@]3(C(=O)NS(=O)(=O)C4(C)CC4)C[C@H]3/C=C\CCCCC[C@H](NC(=O)OC3CCC3)C(=O)N2C1 [Example 180, cyclobutyl [(2R,6S,12Z,13aS,14aR,16aS)-5′-methyl-14a-{[(1-methylcyclopropyl)sulfonyl]carbamoyl}-5,16-dioxo-9′-(trifluoromethoxy)-1,1′,2′,5,6,7,8,9,10,11,13a,14,14a,15,16,16a-hexadecahydrospiro[cyclopropa[e]pyrrolo[1,2-a][1,4]diazacyclopentadecine-2,3′-pyrano[2,3-c]quinolin]-6-yl]carbamate]
EC50 (HCV genotype 1b replicon; genotype 1b replicon): 1.72 nM
IC50 [1, 4]: 0.012 nM

COc1ccc2nc(C(F)(F)F)c3c(c2c1)CC[C@]1(C[C@H]2C(=O)N[C@]4(C(=O)NS(=O)(=O)C5(C)CC5)C[C@H]4/C=C\CCCCC[C@H](NC(=O)OC(C)C)C(=O)N2C1)O3 [Example 447, propan-2-yl [(2R,6S,12Z,13aS,14aR,16aS)-9′-methoxy-14a-{[(1-methylcyclopropyl)sulfonyl]carbamoyl}-5,16-dioxo-5′-(trifluoromethyl)-1,1′,2′,5,6,7,8,9,10,11,13a,14,14a,15,16,16a-hexadecahydrospiro[cyclopropa[e]pyrrolo[1,2-a][1,4]diazacyclopentadecine-2,3′-pyrano[2,3-c]quinolin]-6-yl]carbamate]
EC50 (HCV genotype 1b replicon; HCV replicon, genotype 1b): 1.37 nM
IC50 [1, 6]: 0.019 nM
